According to PMC5913971, “A Novel Piperazine-Based Drug Lead for Cryptosporidiosis from the Medicines for Malaria Venture Open-Access Malaria Box” (Antimicrobial Agents and Chemotherapy, 2018):
Where two headings read alike, the source gives them in different places.

Tests used:
[1] = test system: 11 species of bacteria, 12 protozoa, and 7 helminths; parameters: method as in PMID 27467575; details: cited from earlier work
[2] = parameters: method as in PMID 27467575; details: single oral dose of 55 mg/kg; cited from earlier work
[3] = test system: five mammalian cell lines; assay: Toxicity profiling in mammalian cell lines; details: based on previously reported toxicity profiling
[4] = parameters: method as in PMID 27467575; details: human; cited from earlier work
C. parvum Iowa isolate = assay: Immunofluorescence assay for C. parvum growth inhibition in HCT-8 cells; format: cell-based, Cryptosporidium parvum; details: Cryptosporidium parvum, inside HCT-8 cells, 48 h incubation
Method: Inhibition of C. parvum growth was measured as described previously ([20]). Oocysts were excysted by treatment with 10 mM hydrochloric acid (10 min at 37°C), followed by exposure to 2 mM sodium taurocholate (Sigma-Aldrich) in PBS for 10 min at 16°C. Excysted oocysts were then added to >95% confluent HCT-8 cell monolayers in 384-well plates at a concentration of 5,500 Iowa isolate oocysts per well. For C. parvum field isolates, the inoculum required to yield an infection level similar to that produced by 5,500 Iowa isolate oocysts per well was determined and was used for subsequent assays of parasite inhibition. Compounds were added just before or 3 h after infection, and assay plates were incubated for 48 h postinfection at 37°C under 5% CO2. Wells were then washed three times with PBS containing 111 mM D-galactose, fixed with 4% paraformaldehyde in PBS for 15 min at room temperature, permeabilized with 0.25% Triton X-100 for 10 min at 37°C, washed three times with PBS with 0.1% Tween 20, and blocked with 4% bovine serum albumin (BSA) in PBS for 2 h at 37°C or 4°C overnight. Parasitophorous vacuoles were stained with 1.33 μg/ml of fluorescein-labeled Vicia villosa lectin (Vector Laboratories) diluted in 1% BSA in PBS with 0.1% Tween 20 for 1 h at 37°C, followed by the addition of Hoechst 33258 (AnaSpec) at a final concentration of 0.09 mM diluted in water for another 15 min at 37°C. Wells were then washed five times with PBS containing 0.1% Tween 20. A Nikon Eclipse TE2000 epifluorescence microscope with an automated stage was programmed using NIS-Elements Advanced Research software (Nikon, USA) to focus on the center of each well and take a 3-by-3 composite image using an EXi Blue fluorescence microscopy camera (QImaging, Canada) with a 20× objective (numerical aperture, 0.45). Nucleus and parasite images were exported separately as .tif files and were analyzed using macros developed on the ImageJ platform (National Institutes of Health) ([20]). The only modification from the published macro used to count parasites was that the lower size threshold for parasites was decreased from 16.5 to 4 pixels (1 pixel = 0.65 μm). Graphs were plotted, and half-maximal effective concentration (EC50) and 90% effective concentration (EC90) values were calculated using GraphPad Prism software, version 6.01. For every C. parvum field isolate experiment, a dose-response experiment against the C. parvum Iowa isolate was performed simultaneously as a reference.

C. parvum = assay: Parasite persistence (time-kill) assay in HCT-8 cells; format: cell-based, Cryptosporidium parvum
Method: Excysted C. parvum oocysts were added to >90% confluent HCT-8 cells in 384-well plates. […] At ∼24 h (i.e., the time of compound addition) and at various time intervals thereafter, parasites were washed, fixed, permeabilized, stained, and imaged as for the C. parvum growth assay. For the extended-compound-exposure experiments, the medium and compound were replaced every 3 days. A separate 384-well plate was used for each time interval. Parasite numbers were normalized to host cell nucleus numbers and are expressed as the percentage of parasites per host cell nucleus. In order to fit parasite decay curves, the effect of drugs was isolated from expected changes in parasite numbers over time by expressing the number of parasites as the percentage of the number of parasites with the control, dimethyl sulfoxide (DMSO), for each time point. Exponential decay curves were fit using GraphPad Prism software, version 6.01, and curve validity was assessed using the replicates test.

[5] = parameters: method as in PMID 27467575; details: mouse; cited from earlier work
zebrafish = test system: zebrafish; parameters: method as in PMID 27467575; details: cited from earlier work
[6] = test system: cytochrome P450 (CYP) isoforms (1A2, 2C9, 2C19, 2D6, 3A4-M, and 3A4-T); parameters: method as in PMID 27467575; details: at 10 μM; cited from earlier work

For `O=C(Nc1ccc(Cl)cc1)N1CCN(c2ccc3nncn3n2)CC1` [MMV665917, Clc1ccc(NC(=O)N2CCN(CC2)c3ccc4nncn4n3)cc1], the “activity in numerous biological assays (bacteria, protozoa, helminths)” value [1] is listed as “inactive”, the “plasma MMV665917 levels over time” value [2] is listed as “continued to increase for 9 h” and the “selectivity index (SI) for C. parvum over five mammalian cell lines” value [3] is listed as over 20. The plasma protein binding [4] was 88.8%, the EC50 (C. parvum Iowa isolate; Fig. 1, read-out: EC50, anti-C. parvum dose response) was 2.1 µM and the EC90 (C. parvum Iowa isolate; Fig. 1B, read-out: EC90, anti-C. parvum dose response) was 5.1 µM. The “concentration giving maximal rate of parasite elimination” value (C. parvum) was 3 × EC90, the “parasiticidal or parasitistatic for C. parvum” value (C. parvum) was “parasiticidal” and the “decay rate constant (r)” value (C. parvum; 3× EC90, one-phase exponential decay) was 0.05346. The “decay rate constant (r)” value (C. parvum; 12× EC90, one-phase exponential decay) was 0.05864, the “percentage of host cells infected, extended treatment” value (C. parvum; day 13 of treatment, 12 × EC90, medium and drug replaced every 3 days) was about 0.1% and the plasma protein binding [5] was 83.3%. For the same compound, the toxicity to zebrafish (zebrafish) was “not toxic” and the “inhibition of six CYP isoforms” value [6] was “low inhibition”.
